Results: US12473282B2, “Biphenyl fluorine double bond derivative, preparation method therefor, and pharmaceutical application thereof” (Abbisko Therapeutics Co., Ltd., priority 2020, dated 2025)

Assay: Jurkat reporter gene cellular assay
Assay type: cell-based
Settings: Homo sapiens; Jurkat/NF-κB-luc/PD1 + Raji-PD-L1 coculture, OKT3 1 μg/mL, 6 hrs, activation fold; read-out: Cell Activity EC50
Description: The effect of compounds of the examples of the present invention and positive compounds on the interaction between PD-1 and PD-L1 expressed on cell surfaces, and the related influence on T cell functions, were determined by a Jurkat reporter gene cellular assay.
Briefly, the reporter gene plasmid of NF-κB-luc and the plasmid of human PD-1 were transfected into Jurkat cells to establish a stably transfected cell line capable of stably expressing both PD-1 and NF-κB-Luc reporter genes; the expression level of PD-1 on the cell surface was confirmed by flow cytometry; and the expression of the reporter gene was confirmed via the response of the reporter gene stimulated by OKT-3 and Raiji cells.
In addition, the plasmid of human PD-L1 was transfected into Raji cells to obtain a cell line capable of stably expressing PD-L1. Jurkat/NF-κB-luc/PD1 cells and Raji-PD-L1 cells were then cocultured and stimulated with OKT-3. On this basis, the compounds were added, and the enhancement of the signal pathway of T cell activation by the inhibitory effect of the compounds on the interaction between PD-1 and PD-L1 was evaluated by readings of reporter gene responses. The specific experimental process was as follows: • 1. 30 μL of compound or antibody solution was added to each well of a white 96-well plate (corning, 3610) at different diluted concentrations, and 10 μL of OKT3 (Biolegend, 317326) was then added (the final concentration of OKT3: 1 μg/mL); • 2. 20 μL of Raji-PD-L1 cell suspension was added to each well with 5*10^4 cells for each well, and was incubated in an incubator for 20 min; • 3. 20 μL of Jurkat/NF-Kb-luc/PD-1 cell suspension was added to each well with 5*10^4 cells for each well, and well mixed, and 6 hrs later, Bright-glo (Promega, E2620) was applied and plates were read on Envision; • 4. The reading of each well treated with the compound was compared with the reading of each well treated with DMSO to obtain the activation fold of the compound; • 5. EC50 values of compounds and positive compounds of the examples of the present invention were determined by non-linear regression analysis of activation folds at different compound concentrations.

EC50	SMILES
80.6 nM	COc1cc(/C(F)=C/c2cccc(-c3cccc(NC(=O)c4nc5c(n4C)CCN(CCC46CCC(C(=O)O)(CC4)C6)C5)c3Cl)c2Cl)ncc1CNC1CCC1 [Example 48, (Z)-4-(2-(2-((2,2′-dichloro-3′-(2-(5-((cyclobutylamino)methyl)-4-methoxypyridin-2-yl)-2-fluorovinyl)-[1,1′-biphenyl]-3-yl)carbamoyl)-1-methyl-1,4,6,7-tetrahydro-5H-imidazo[4,5-c]pyridin-5-yl)ethyl) bicyclo[2.2.1]heptane-1-carboxylic acid]
90.1 nM	COc1cc(/C(F)=C/c2cccc(-c3cccc(NC(=O)c4nc5c(n4C)CCN(CCC46CCC(C(=O)O)(CC4)C6)C5)c3Cl)c2Cl)ncc1CNC1CCCC1 [Example 51, (Z)-4-(2-(2-((2,2′-dichloro-3′-(2-(5-((cyclopentylamino)methyl)-4-methoxypyridin-2-yl)-2-fluorovinyl)-[1,1′-biphenyl]-3-yl)carbamoyl)-1-methyl-1,4,6,7-tetrahydro-5H-imidazo[4,5-c]pyridin-5-yl)ethyl) bicyclor[2.2.1]heptane-1-carboxylic acid]
116 nM	COc1cc(/C(F)=C/c2cccc(-c3cccc(NC(=O)c4nc5c(n4C)CCN(CCC46CCC(C(=O)O)(CC4)C6)C5)c3Cl)c2Cl)ncc1CN1CCC[C@H]1C(C)(C)O [Example 52, (S,Z)-4-(2-(2-((2,2′-dichloro-3′-(2-fluoro-2-(5-((2-(2-hydroxypropan-2-yl)pyrrolidin-1-yl)methyl)-4-methoxypyridin-2-yl)vinyl)-[1,1′-biphenyl]-3-yl)carbamoyl)-1-methyl-1,4,6,7-tetrahydro-5H-imidazo [4,5-c]pyridin-5-yl)ethyl)bicyclo[2.2.1]heptane-1-carboxylic acid]
1040 nM	COc1cc(/C(F)=C/c2cccc(-c3cccc(NC(=O)c4nc5c(n4C)CCN(CCC46CCC(C(=O)O)(CC4)C6)C5)c3Cl)c2Cl)ncc1CNC12CC3CC(CC(C3)C1)C2 [Example 53, (Z)-4-(2-(2-((3′-(2-(5-((adamantan-1-ylamino)methyl)-4-methoxypyridin-2-yl)-2-fluorovinyl)-2,2′-dichloro-[1,1′-biphenyl]-3-yl)carbamoyl)-1-methyl-1,4,6,7-tetrahydro-5H-imidazo[4,5-c]pyridin-5-yl)ethyl)bicyclo[2.2.1]heptane-1-carboxylic acid]
250 nM	COc1cc(/C(F)=C/c2cccc(-c3cccc(NC(=O)c4nc5c(n4C)CCN(CCC46CCC(C(=O)O)(CC4)C6)C5)c3Cl)c2Cl)ncc1CN(C)CCN(C)C [Example 54, (Z)-4-(2-(2-((2,2′-dichloro-3′-(2-(5-(((2-(dimethylamino)ethyl)(methyl)amino)methyl)-4-methoxypyridin-2-yl)-2-fluorovinyl)-[1,1′-biphenyl]-3-yl)carbamoyl)-1-methyl-1,4,6,7-tetrahydro-5H-imidazo [4,5-c]pyridin-5-yl)ethyl)bicyclo[2.2.1]heptane-1-carboxylic acid]
149 nM	COc1cc(/C(F)=C/c2cccc(-c3cccc(NC(=O)c4nc5c(n4C)CCN(CCC46CCC(C(=O)O)(CC4)C6)C5)c3Cl)c2Cl)ncc1CN1CCC2(CCC2)C1 [Example 55, (Z)-4-(2-(2-((3′-(2-(5-((6-azaspiro[3.4]octan-6-yl)methyl)-4-methoxypyridin-2-yl)-2-fluorovinyl)-2,2′-dichloro-[1,1′-biphenyl]-3-yl)carbamoyl)-1-methyl-1,4,6,7-tetrahydro-5H-imidazo[4,5-c]pyridin-5-yl)ethyl)bicyclo[2.2.1]heptane-1-carboxylic acid]
61.4 nM	COc1cc(/C(F)=C/c2cccc(-c3cccc(NC(=O)c4nc5c(n4C)CCN(CCC46CCC(C(=O)O)(CC4)C6)C5)c3Cl)c2Cl)ncc1CN1CC[C@@H](C)C1 [Example 56, (R,Z)-4-(2-(2-((2,2′-dichloro-3′-(2-fluoro-2-(4-methoxy-5-((3-methylpyrrolidin-1-yl)methyl)pyridin-2-yl)vinyl)-[1,1′-biphenyl]-3-yl)carbamoyl)-1-methyl-1,4,6,7-tetrahydro-5H-imidazo[4,5-c]pyridin-5-yl)ethyl)bicyclo[2.2.1]heptane-1-carboxylic acid]
72 nM	COc1cc(/C(F)=C/c2cccc(-c3cccc(NC(=O)c4nc5c(n4C)CCN(CCC46CCC(C(=O)O)(CC4)C6)C5)c3Cl)c2Cl)ncc1CN1C[C@@H](O)[C@H](F)C1 [Example 57, 4-(2-(2-((2,2′-dichloro-3′-((Z)-2-fluoro-2-(5-(((3R,4R)-3-fluoro-4-hydroxypyrrolidin-1-yl)methyl)-4-methoxypyridin-2-yl)vinyl)-[1,1-biphenyl]-3-yl)carbamoyl)-1-methyl-1,4,6,7-tetrahydro-5H-imidazo [4,5-c]pyridin-5-yl)ethyl)bicyclo[2.2.1]heptane-1-carboxylic acid]
134 nM	COc1cc(/C(F)=C/c2cccc(-c3cccc(NC(=O)c4nc5c(n4C)CCN(CCC46CCC(C(=O)O)(CC4)C6)C5)c3Cl)c2Cl)ncc1CN1CC[C@@H](F)C1 [Example 60, (R,Z)-4-(2-(2-((2,2′-dichloro-3′-(2-fluoro-2-(5-((3-fluoropyrrolidin-1-yl)methyl)-4-methoxypyridin-2-yl)vinyl)-[1,1′-biphenyl]-3-yl)carbamoyl)-1-methyl-1,4,6,7-tetrahydro-5H-imidazo[4,5-c]pyridin-5-yl)ethyl)bicyclo[2.2.1]heptane-1-carboxylic acid]
522 nM	COc1cc(/C(F)=C/c2cccc(-c3cccc(NC(=O)c4nc5c(n4C)CCN(CCC46CCC(C(=O)O)(CC4)C6)C5)c3Cl)c2Cl)ncc1CN1CCC(O)(C(F)(F)F)C1 (stereo not drawn) [Example 61, (Z)-4-(2-(2-((2,2′-dichloro-3′-(2-fluoro-2-(5-((3-hydroxy-3-(trifluoromethyl)pyrrolidin-1-yl)methyl)-4-methoxypyridin-2-yl)vinyl)-[1,1′-biphenyl]-3-yl)carbamoyl)-1-methyl-1,4,6,7-tetrahydro-5H-imidazo [4,5-c]pyridin-5-yl)ethyl)bicyclo[2.2.1]heptane-1-carboxylic acid]
117 nM	COc1cc(/C(F)=C/c2cccc(-c3cccc(NC(=O)c4nc5c(n4C)CCN(CCC46CCC(C(=O)O)(CC4)C6)C5)c3Cl)c2Cl)ncc1CN1CCC2(CC(O)C2)C1 (stereo not drawn) [Example 62, (Z)-4-(2-(2-((2,2′-dichloro-3′-(2-fluoro-2-(5-((2-hydroxy-6-azaspiro [3.4]octan-6-yl)methyl)-4-methoxypyridin-2-yl)vinyl)-[1,1′-biphenyl]-3-yl)carbamoyl)-1-methyl-1,4,6,7-tetrahydro-5H-imidazo[4,5-c]pyridin-5-yl)ethyl)bicyclo[2.2.1]heptane-1-carboxylic acid]
159 nM	COc1cc(/C(F)=C/c2cccc(-c3cccc(NC(=O)c4nc5c(n4C)CCN(CCC46CCC(C(=O)O)(CC4)C6)C5)c3Cl)c2Cl)ncc1CN(C)C(C)C [Example 63, (Z)-4-(2-(2-((2,2′-dichloro-3′-(2-fluoro-2-(5-((isopropyl(methyl)amino)methyl)-4-methoxypyridin-2-yl)vinyl)-[1,1′-biphenyl]-3-yl)carbamoyl)-1-methyl-1,4,6,7-tetrahydro-5H-imidazo[4,5-c]pyridin-5-yl)ethyl)bicyclo[2.2.1]heptane-1-carboxylic acid]
